In patent publication US4033992A, “Novel compounds of the 11-deoxyprostaglandin E3, R3α, and F3β series” (priority 1975, dated 1977):

Assays:
[1] = system: gastric acid secretion; experiment: Gastric acid secretion inhibitory action, modified "Shay rat" procedure; assay type: in vivo, rats (male, CFE strain); conditions: 3 hours
Experimental: The novel compounds of the present invention (and those wherein R2 is hydroxy when X is keto and Y is ethylene) are effective inhibitors of gastric acid secretion and of ulcer development in experimental animals, and thus are potentially valuable as agents for the control of gastric acid secretion and of gastric erosion and as anti-ulcer agents. Gastric acid secretion inhibitory action was measured by the "Shay rat" procedure with some modifications as follows.
The rats (male, CFE strain) were starved for 48 hours (water was given ad libitum) to permit evacuation of stomach contents. On the morning of the experiment, under ether anesthesia, the abdominal region was shaved and a midline incision (1-1 1/2") was made with a scapel. With the help of a closed curved hemostate the duodenum was picked up. Upon getting the duodenum into view, fingers were used to pull the stomach through the opening, the stomach was then gently manipulated with fingers to rid the stomach of air and residual matter which were pushed through the pylorus. Two-5 inch sutures were drawn under the pyloric-duodenal juncture. A ligature, at the juncture, was formed with one of the threads. The second ligature was also formed but not tightened.
The test compound or the vehicle, usually 1 ml./100 g. body weight, were injected into the duodenum as close as possible to the first ligature. […]
The abdominal cavity was exposed by cutting with scissors and the esophagus close to the stomach was clamped off with a hemostat, the stomach was removed by cutting above the hemostat (the esophagus was cut) and between the two sutures. […] The supernatant was collected, volume measured and recorded, 2 drops of a phenolphthalein indicator (1% in 95% ethanol) were added and the solution was titrated with 0.02 N NaOH (or with 0.04 N NaOH when large volumes of stomach contents were encountered) to pH 8.4 (because of usual coloring of the stomach contents, phenolphthalein was only used to permit visual indication that the end point was near) and the amount of acid present was calculated. […]

[2] = system: ulcers; experiment: Indomethacin-induced ulcer assay (anti-ulcer); assay type: in vivo, Rats; conditions: Indomethacin 20 mg./kg. s.c., score 0-4
Experimental: Another assay useful for determining potential anti-ulcer agents is carried out in the following manner.
Rats were starved for 48 hours (water was given as libitum). Indomethacin (20 mg./kg. of body weight) was administered by the subcutaneous route and one-half the dose of the test compound was administered by gavage at the same time. After three hours, the second half of the test compound was administered also by gavage. Five hours after the administration of Indomethacin the animals were decapitated and the stomachs removed. The stomachs were washed with distilled water, blotted on gauze, cut along the larger curvature, and the contents rinsed with distilled water. The stomachs were spread out, pinned on a cork and visualized under magnifying glass for ulcers. The critera for scoring of ulcers was as previously reported. [Abdel-Galil et al. Brit. J. Pharmac. Chemotherapy 33:1-14 (1968)].
1-- Petechial hemmorrhage or pin point ulcers
3-- Many ulcers, a few large
4-- Many ulcers, mainly large
Control animals treated with Indomethacin but not test compound consistently give scores of about 2.5-3.5. Control animals treated with neither Indomethacin nor test compound give scores of about 0.5-0.8. Compounds diminishing the control ulcer score by 0.5 unit or more are considered to be active

[3] = system: bronchospasms elicited by intravenous injections of 5-hydroxytryptamine, histamine, or acetylchlorine; experiment: Bronchodilator activity by the Konzett procedure; assay type: in vivo, guinea pigs; conditions: Cavia porcellus, three logarithmic cumulative intravenous doses
Experimental: Bronchodilator activity was determined in guinea pigs against bronchospasms elicited by intravenous injections of 5-hydroxytryptamine, histamine, or acetylchlorine by the Konzett procedure. [See J. Lulling, P. Lievens, F. El Sayed and J. Prignot, Arzneimittel-Forschung, 18,995 (1968).] This activity is expressed as an ED50 determined from the results obtained with three logarithmic cumulative intravenous doses.

[4] = intraduodenal dose 50 mg./kg. of body weight

| SMILES | Percent Inhibition (gastric acid secretion) ([1]; intraduodenal dose 12.5 mg./kg. of body weight) [%] | Percent Inhibition (gastric acid secretion) [1, 4] [%] | Score, Treated Animals (ulcer score) ([2]; total oral dose 12.5 mg./kg. of body weight, Controls 2.7) | ED50 ([3]; spasmogenic agent 5-hydroxytryptamine) [µg/kg] | ED50 ([3]; spasmogenic agent acetylcholine) [µg/kg] | ED50 ([3]; spasmogenic agent histamine) [µg/kg] | Score, Treated Animals (ulcer score) ([2]; total oral dose 50 mg./kg. of body weight, Controls 2.8) |
| --- | --- | --- | --- | --- | --- | --- | --- |
| CCCCC[C@H](O)/C=C/[C@H]1CCC(=O)[C@@H]1C/C=C\CCCC(=O)O [l-11-deoxyprostaglandin E2, 11-deoxyprostaglandin E2] | 42 | 97 | 1.2 | 5.2 | 10 | 5.2 | – |
| CCCCC[C@H](O)/C=C/[C@H]1CC[C@H](O)[C@@H]1C/C=C\CCCC(=O)O [l-11-deoxyprostaglandin F2 α, 11-deoxyprostaglandin F2 α] | – | 98 | – | – | – | – | 1.3 |
